Patent US10738028B2, “Spiro three-membered ring, spiro five-membered ring peptide deformylase inhibitor and use thereof in antibacteria and anti-tumor” (priority 2016, dated 2020)

Key:
Type in all cases: cell-based
[1] = tested on: Moraxella catarrhalis (BCA); experiment: MIC, two-fold agar dilution (CLSI), clinical isolates
Summary of the method: (§1)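 Following the American Clinical and Laboratory Standards Institute procedure, agar two-fold dilution served to determine minimum inhibitory concentrations.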

[2] = tested on: methicillin-sensitive Staphylococcus aureus (MSSA); experiment: as above
Summary of the method: as §1

[3] = tested on: Escherichia coli (including ESBLs, non-ESBLs); experiment: as above
Summary of the method: as §1

[4] = tested on: methicillin-sensitive Staphylococcus epidermidis (MSSE); experiment: as above
Summary of the method: as §1

[5] = tested on: methicillin-resistant Staphylococcus epidermidis (MRSE); experiment: as above
Summary of the method: as §1

[6] = tested on: methicillin-resistant Staphylococcus aureus (MRSA); experiment: as above
Summary of the method: as §1

[7] = tested on: Streptococcus pneoumoniae (SPN); experiment: as above
Summary of the method: as §1

[8] = tested on: Enterococcus faecium (EFM); experiment: as above
Summary of the method: as §1

[9] = tested on: Enterococcus faecalis (EFA); experiment: as above
Summary of the method: as §1

[10] = tested on: HCT-116 colorectal cancer cell line; experiment: CCK-8 proliferation inhibition; conditions: concentration of 30 μM, 72 hours, CCK-8
Summary of the method: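 2000 cells/well, McCoy's 5A + 10% newborn bovine serum; overnight attach, 37° C./5% CO2. Cpd from DMSO stock diluted in medium, 72 h. Readout: CCK-8 (1:10). Ctrl 1‰ DMSO.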

[11] = tested on: BEL-7402 liver cancer cell line; experiment: CCK-8 proliferation inhibition; conditions: concentration of 30 μM, 72 hours, 30 µM
Summary of the method: (§2)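 Plating at 2000 cells/well, then incubation overnight at 37° C. Next, a range of compound concentrations for 72 hours (control 1‰ DMSO). Finally, medium decanted and CCK-8 diluted 1:10 added.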

[12] = tested on: MGC-803 gastric cancer cell line; experiment: CCK-8 proliferation inhibition; conditions: concentration of 30 μM
Summary of the method: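 CCK-8 read-out after 72 h drug exposure; 2000 cells/well, overnight pre-culture (37° C, 5% CO2); vehicle 1‰ DMSO. Media: PC3 F12; MGC-803/Jurkat 1640; MCF-7 DMEM high glucose; all +10% newborn bovine serum, 1% antibiotics.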

[13] = tested on: A549 lung cancer cell line; experiment: CCK-8 proliferation inhibition; conditions: concentration of 30 μM
Summary of the method: as §2

O=C(C[C@@H](CC1CCCC1)C(=O)N1CC2(CC2)C[C@H]1C(=O)Nc1ccncn1)NO [Example 63]
Anti-bacterial activity (MIC), strain BCA 14-1 ([1]; clinical isolate BCA 14-1): 2 µg/mL
Anti-bacterial activity (MIC), strain BCA 14-4 ([1]; clinical isolate BCA 14-4): 2 µg/mL
Anti-bacterial activity (MIC), strain BCA 14-5 ([1]; clinical isolate BCA 14-5): 0.25 µg/mL
Anti-bacterial activity (MIC), strain BCA 14-6 ([1]; clinical isolate BCA 14-6): 0.25 µg/mL
Anti-bacterial activity (MIC), strain BCA 14-7 ([1]; clinical isolate BCA 14-7): 4 µg/mL
Anti-bacterial activity (MIC), strain BCA 14-8 ([1]; clinical isolate BCA 14-8): 0.5 µg/mL
Anti-bacterial activity (MIC), strain BCA 14-10 ([1]; clinical isolate BCA 14-10): 0.5 µg/mL
Anti-bacterial activity (MIC), strain MSSA 15-3 ([2]; clinical isolate MSSA 15-3): 0.25 µg/mL
Anti-bacterial activity (MIC), strain MSSA 15-4 ([2]; clinical isolate MSSA 15-4): 0.125 µg/mL
Anti-bacterial activity (MIC), strain MSSA 15-5 ([2]; clinical isolate MSSA 15-5): 0.125 µg/mL
Anti-bacterial activity (MIC), strain MSSA 15-6 ([2]; clinical isolate MSSA 15-6): 16 µg/mL
Anti-bacterial activity (MIC), strain ECO+ 15-1 ([3]; clinical isolate ECO+ 15-1): 16 µg/mL
Anti-bacterial activity (MIC), strain ECO+ 15-2 ([3]; clinical isolate ECO+ 15-2): 32 µg/mL
Anti-bacterial activity (MIC), strain ECO+ 15-3 ([3]; clinical isolate ECO+ 15-3): 16 µg/mL
Anti-bacterial activity (MIC), strain ECO+ 15-4 ([3]; clinical isolate ECO+ 15-4): 16 µg/mL
Anti-bacterial activity (MIC), strain ECO− 15-1 ([3]; clinical isolate ECO− 15-1): 16 µg/mL
Anti-bacterial activity (MIC), strain ECO− 15-2 ([3]; clinical isolate ECO− 15-2): 16 µg/mL
Anti-bacterial activity (MIC), strain ECO− 15-3 ([3]; clinical isolate ECO− 15-3): 32 µg/mL
Anti-bacterial activity (MIC), strain ECO− 15-4 ([3]; clinical isolate ECO− 15-4): 16 µg/mL
Anti-bacterial activity (MIC), strain MSSE 15-3 ([4]; clinical isolate MSSE 15-3): 0.125 µg/mL
Anti-bacterial activity (MIC), strain MSSE 15-4 ([4]; clinical isolate MSSE 15-4): 0.25 µg/mL
Anti-bacterial activity (MIC), strain MSSE 15-5 ([4]; clinical isolate MSSE 15-5): 0.25 µg/mL
Anti-bacterial activity (MIC), strain MSSE 15-6 ([4]; clinical isolate MSSE 15-6): 0.125 µg/mL
Anti-bacterial activity (MIC), strain MRSE 15-1 ([5]; clinical isolate MRSE 15-1): 0.25 µg/mL
Anti-bacterial activity (MIC), strain MRSE 15-2 ([5]; clinical isolate MRSE 15-2): 0.25 µg/mL
Anti-bacterial activity (MIC), strain MRSE 15-3 ([5]; clinical isolate MRSE 15-3): 0.25 µg/mL
Anti-bacterial activity (MIC), strain MRSE 15-7 ([5]; clinical isolate MRSE 15-7): 0.25 µg/mL
Anti-bacterial activity (MIC), strain MRSA 15-1 ([6]; clinical isolate MRSA 15-1): 0.125 µg/mL
Anti-bacterial activity (MIC), strain MRSA 15-2 ([6]; clinical isolate MRSA 15-2): 0.25 µg/mL
Anti-bacterial activity (MIC), strain MRSA 15-3 ([6]; clinical isolate MRSA 15-3): 0.125 µg/mL
Anti-bacterial activity (MIC), strain MRSA 15-4 ([6]; clinical isolate MRSA 15-4): 0.25 µg/mL
Anti-bacterial activity (MIC), strain SPN 16-2 ([7]; clinical isolate SPN 16-2): 0.5 µg/mL
Anti-bacterial activity (MIC), strain SPN 16-4 ([7]; clinical isolate SPN 16-4): 0.5 µg/mL
Anti-bacterial activity (MIC), strain EFM 15-1 ([8]; clinical isolate EFM 15-1): > 32 µg/mL
Anti-bacterial activity (MIC), strain EFM 15-2 ([8]; clinical isolate EFM 15-2): > 32 µg/mL
Anti-bacterial activity (MIC), strain EFM 15-3 ([8]; clinical isolate EFM 15-3): > 32 µg/mL
Anti-bacterial activity (MIC), strain EFM 15-4 ([8]; clinical isolate EFM 15-4): 0.5 µg/mL
Anti-bacterial activity (MIC), strain EFM 15-5 ([8]; clinical isolate EFM 15-5): 0.25 µg/mL
Anti-bacterial activity (MIC), strain EFM 15-6 ([8]; clinical isolate EFM 15-6): 0.25 µg/mL
Anti-bacterial activity (MIC), strain EFA 15-1 ([9]; clinical isolate EFA 15-1): > 32 µg/mL
Anti-bacterial activity (MIC), strain EFA 15-2 ([9]; clinical isolate EFA 15-2): > 32 µg/mL
Anti-bacterial activity (MIC), strain EFA 15-3 ([9]; clinical isolate EFA 15-3): > 32 µg/mL
Anti-bacterial activity (MIC), strain EFA 15-4 ([9]; clinical isolate EFA 15-4): > 32 µg/mL
Anti-bacterial activity (MIC), strain EFA 15-5 ([9]; clinical isolate EFA 15-5): > 32 µg/mL
Anti-bacterial activity (MIC), strain EFA 15-6 ([9]; clinical isolate EFA 15-6): > 32 µg/mL
Anti-bacterial activity (MIC), strain EFA 15-9 ([9]; clinical isolate EFA 15-9): 4 µg/mL
inhibition at 30 µM ([10]; Homo sapiens, HCT-116, 72 h, read-out: HCT116 inhibition rate/%): > 50%
HCT116 inhibition rate/% ([10]; 30 µM): 68%
Inhibition of proliferation, Liver cancer BEL-7402 [11]: 74%
inhibition at 30 µM ([12]; Homo sapiens, MGC-803, 72 h): > 50%
Inhibition of proliferation, Gastric cancer MGC-803 ([12]; 72 hours, 30 µM): 58%
inhibition at 30 µM ([13]; Homo sapiens, A549, 72 h): > 50%
Inhibition of proliferation, Lung cancer A549 ([13]; 72 hours, 30 µM): 63%
